Results reported in patent US8802597B2, “Herbicidal pyrimidines” (E I du Pont de Nemours and Company, priority 2003, dated 2014).
Like-named read-outs stand apart in the source and are kept apart here.

How the values were obtained:
Experiment in all cases: Test C pre/postemergence
Assay type in all cases: in vivo
[1] = tested on: lambsquarters (Chenopodium album); details: Chenopodium album, read-out: Plant response rating, Lambsquarters
Outline: (§1)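 Seeds sown and sprayed preemergence with test compound in non-phytotoxic solvent containing surfactant; postemergence sprays, same formulation, went onto plants 2 to 18 cm tall (1- to 4-leaf stage). Plants held in greenhouse 12 to 14 days, then visually rated against untreated controls on a 0–100 scale (0 no effect, 100 complete control).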

[2] = tested on: morningglory (Ipomoea coccinea); details: Ipomoea; for pest or weed control at 31 g/ha: 31 g ai/ha; for pest or weed control at 62 g/ha: 62 g ai/ha; for pest or weed control at 125 g/ha: 125 g ai/ha
Outline: as §1

[3] = tested on: Surinam grass (Brachiaria decumbens); details: Urochloa decumbens; for pest or weed control at 31 g/ha: 31 g ai/ha; for pest or weed control at 62 g/ha: 62 g ai/ha
Outline: as §1

[4] = tested on: velvetleaf (Abutilon theophrasti); details: Abutilon theophrasti; for pest or weed control at 31 g/ha: 31 g ai/ha; for pest or weed control at 62 g/ha: 62 g ai/ha
Outline: as §1

[5] = tested on: bermudagrass (Cynodon dactylon); details: Cynodon dactylon; for pest or weed control at 31 g/ha: 31 g ai/ha; for pest or weed control at 62 g/ha: 62 g ai/ha; for pest or weed control at 125 g/ha: 125 g ai/ha
Outline: as §1

[6] = tested on: giant foxtail (Setaria faberii); details: Setaria faberi; for pest or weed control at 125 g/ha: 125 g ai/ha; for pest or weed control at 31 g/ha: 31 g ai/ha; for pest or weed control at 62 g/ha: 62 g ai/ha
Outline: as §1

[7] = post-emergence, Postemergence, read-out: Plant response rating (scale of 0 to 100), Morningglory
[8] = pre-emergence, Preemergence, scale 0 to 100, 0 no effect, 100 complete control, read-out: Plant response rating, Morningglory
[9] = post-emergence, Postemergence, read-out: Plant response rating (scale of 0 to 100), Surinam Grass
[10] = pre-emergence, Preemergence, scale 0 to 100, 0 no effect, 100 complete control, read-out: Plant response rating, Surinam Grass
[11] = post-emergence, Postemergence, read-out: Plant response rating (scale of 0 to 100), Velvetleaf
[12] = pre-emergence, Preemergence, scale 0 to 100, 0 no effect, 100 complete control, read-out: Plant response rating, Velvetleaf
[13] = post-emergence, Postemergence, scale 0 to 100 (0 no effect, 100 complete control), read-out: Bermudagrass plant response rating
[14] = pre-emergence, Preemergence, scale 0 to 100, 0 no effect, 100 complete control, read-out: Plant response rating, Bermudagrass
[15] = post-emergence, Postemergence, read-out: Plant response rating (scale of 0 to 100), Foxtail, Giant
[16] = pre-emergence, Preemergence, scale 0 to 100, 0 no effect, 100 complete control, read-out: Plant response rating, Foxtail, Giant

Nc1nc(C2CC2)nc(C(=O)OCc2ccccc2)c1Cl [Compound 78, phenylmethyl 6-amino-5-chloro-2-cyclopropyl-4-pyrimidinecarboxylate]
pest or weed control at 250 g/ha ([1]; post-emergence, Postemergence, 250 g ai/ha, scale 0 to 100): 100%
pest or weed control at 16 g/ha ([1]; pre-emergence, Preemergence, 16 g ai/ha, scale 0 to 100, 0 no effect, 100 complete control): 0%
pest or weed control at 31 g/ha ([1]; pre-emergence, Preemergence, 31 g ai/ha, scale 0 to 100, 0 no effect, 100 complete control): 70%
pest or weed control at 62 g/ha ([1]; pre-emergence, Preemergence, 62 g ai/ha, scale 0 to 100, 0 no effect, 100 complete control): 80%
pest or weed control at 125 g/ha ([1]; pre-emergence, Preemergence, 125 g ai/ha, scale 0 to 100): 80%
pest or weed control at 31 g/ha [2, 7]: 90%
pest or weed control at 62 g/ha [2, 7]: 90%
pest or weed control at 125 g/ha ([2]; post-emergence, Postemergence, scale 0 to 100 (0 no effect, 100 complete control), read-out: Morningglory plant response rating): 100%
pest or weed control at 250 g/ha ([2]; post-emergence, Postemergence, 250 g ai/ha, scale 0 to 100, read-out: Plant response rating, Morningglory): 100%
pest or weed control at 16 g/ha ([2]; pre-emergence, Preemergence, 16 g ai/ha, scale 0 to 100, 0 no effect, 100 complete control, read-out: Plant response rating, Morningglory): 0%
pest or weed control at 31 g/ha [2, 8]: 70%
pest or weed control at 62 g/ha [2, 8]: 85%
pest or weed control at 125 g/ha ([2]; pre-emergence, Preemergence, scale 0 to 100, read-out: Plant response rating, Morningglory): 100%
pest or weed control at 125 g/ha ([3]; post-emergence, Postemergence, 125 g ai/ha, scale 0 to 100 (0 no effect, 100 complete control), read-out: Surinam Grass plant response rating): 55%
pest or weed control at 31 g/ha [3, 9]: 50%
pest or weed control at 62 g/ha [3, 9]: 55%
pest or weed control at 250 g/ha ([3]; post-emergence, Postemergence, 250 g ai/ha, scale 0 to 100, read-out: Plant response rating, Surinam Grass): 90%
pest or weed control at 16 g/ha ([3]; pre-emergence, Preemergence, 16 g ai/ha, scale 0 to 100, 0 no effect, 100 complete control, read-out: Plant response rating, Surinam Grass): 0%
pest or weed control at 31 g/ha [3, 10]: 0%
pest or weed control at 62 g/ha [3, 10]: 0%
pest or weed control at 31 g/ha [4, 11]: 50%
pest or weed control at 62 g/ha [4, 11]: 80%
pest or weed control at 125 g/ha ([4]; post-emergence, Postemergence, 125 g ai/ha, scale 0 to 100 (0 no effect, 100 complete control), read-out: Velvetleaf plant response rating): 95%
pest or weed control at 250 g/ha ([4]; post-emergence, Postemergence, 250 g ai/ha, scale 0 to 100, read-out: Plant response rating, Velvetleaf): 100%
pest or weed control at 16 g/ha ([4]; pre-emergence, Preemergence, 16 g ai/ha, scale 0 to 100, 0 no effect, 100 complete control, read-out: Plant response rating, Velvetleaf): 10%
pest or weed control at 31 g/ha [4, 12]: 55%
pest or weed control at 62 g/ha [4, 12]: 70%
pest or weed control at 31 g/ha ([5]; post-emergence, Postemergence, read-out: Plant response rating (scale of 0 to 100), Bermudagrass): 60%
pest or weed control at 62 g/ha [5, 13]: 60%
pest or weed control at 125 g/ha [5, 13]: 60%
pest or weed control at 250 g/ha ([5]; post-emergence, Postemergence, 250 g ai/ha, scale 0 to 100, read-out: Plant response rating, Bermudagrass): 65%
pest or weed control at 16 g/ha ([5]; pre-emergence, Preemergence, 16 g ai/ha, scale 0 to 100, 0 no effect, 100 complete control, read-out: Plant response rating, Bermudagrass): 0%
pest or weed control at 31 g/ha [5, 14]: 0%
pest or weed control at 62 g/ha [5, 14]: 0%
pest or weed control at 125 g/ha ([5]; pre-emergence, Preemergence, scale 0 to 100, read-out: Plant response rating, Bermudagrass): 20%
pest or weed control at 125 g/ha ([6]; post-emergence, Postemergence, scale 0 to 100 (0 no effect, 100 complete control), read-out: Foxtail, Giant plant response rating): 65%
pest or weed control at 31 g/ha [6, 15]: 0%
pest or weed control at 62 g/ha [6, 15]: 30%
pest or weed control at 250 g/ha ([6]; post-emergence, Postemergence, 250 g ai/ha, scale 0 to 100, read-out: Plant response rating, Foxtail, Giant): 70%
pest or weed control at 16 g/ha ([6]; pre-emergence, Preemergence, 16 g ai/ha, scale 0 to 100, 0 no effect, 100 complete control, read-out: Plant response rating, Foxtail, Giant): 0%
pest or weed control at 31 g/ha [6, 16]: 0%
pest or weed control at 62 g/ha [6, 16]: 0%
pest or weed control at 125 g/ha ([6]; pre-emergence, Preemergence, scale 0 to 100, read-out: Plant response rating, Foxtail, Giant): 0%
